This is an account of results in US9139587B2, “N1-pyrazolospiroketone acetyl-CoA carboxylase inhibitors” (Pfizer Inc., priority 2009, dated 2015).

Assay [1] addresses T1, recombinant human ACC1 (rhACC1) (Homo sapiens, UniProt Q13085, DEL44-44).
T1 construct: recombinant baculovirus containing full length human ACC1 cDNA; made in house; host or cells: SF9 insect cells (baculovirus)
Put plainly: recombinant hACC1 Transcreener assay (direct inhibition of ACC1 activity). It is filed as biochemical. As to conditions: Transcreener ADP detection FP assay, 50 μM ATP, 30 μM acetyl-CoA, 120 min at 25° C. The procedure: For example direct inhibition of ACC activity, for the compound of Formula (1) was determined using preparations of recombinant human ACC1 (rhACC1) and recombinant human ACC2 (rhACC2). Representative sequences of the recombinant human ACC1 and ACC2 that can be used in the assay are provided in FIG. 1 (SEQ ID NO. 1) and FIG. 2 (SEQ. ID NO. 2), respectively. Preparation of rhACC1. Two liters of SF9 cells, infected with recombinant baculovirus containing full length human ACC1 cDNA, were suspended in ice-cold lysis buffer (25 mM Tris, pH 7.5; 150 mM NaCl; 10% glycerol; 5 mM imidazole (EMD Bioscience; Gibbstown, N.J.); 2 mM TCEP (BioVectra; Charlottetown, Canada); Benzonase nuclease (10000 U/100 g cell paste; Novagen; Madison, Wis.); EDTA-free protease inhibitor cocktail (1 tab/50 mL; Roche Diagnostics; Mannheim, Germany). Cells were lysed by 3 cycles of freeze-thaw and centrifuged at 40,000×g for 40 minutes (4° C.). Supernatant was directly loaded onto a HisTrap FF crude column (GE Healthcare; Piscataway, N.J.) and eluted with an imidazole gradient up to 0.5 M over 20 column volumes (CV). ACC1-containing fractions were pooled and diluted 1:5 with 25 mM Tris, pH 7.5, 2 mM TCEP, 10% glycerol and direct loaded onto a CaptoQ (GE Healthcare) column and eluted with an NaCl gradient up to 1 M over 20 CV's. Phosphate groups were removed from purified ACC1 by incubation with lambda phosphatase (100 U/10 μM target protein; New England Biolabs; Beverly, Mass.) for 14 hours at 4° C.; okadaic acid was added (1 μM final concentration; Roche Diagnostics) to inhibit the phosphatase. Purified ACC1 was exchanged into 25 mM Tris, pH 7.5, 2 mM TCEP, 10% glycerol, 0.5 M NaCl by 6 hour dialysis at 4° C. Aliquots were prepared and frozen at −80° C. […] The final conditions for the assay were 50 mM HEPES, pH 7.2, 10 mM MgCl2, 7.5 mM tripotassium citrate, 2 mM DTT, 0.1 mg/mL BSA, 30 μM acetyl-CoA, 50 μM ATP, and 10 mM KHCO3 Typically, a 10 μl reaction was run for 120 min at 25° C., and 10 μl of Transcreener stop and detect buffer was added and the combination incubated at room temp for an additional 1 hour. The data was acquired on a Envision Fluorescence reader (Perkinelmer) using a 620 excitation Cy5 FP general dual mirror, 620 excitation Cy5 FP filter, 688 emission (S) and a 688 (P) emission filter.

Assay [2] concerns the target T2, recombinant human ACC2 (rhACC2) (Homo sapiens, UniProt O00763, V2141I).
T2 construct: a full length Cytomax clone of ACC2 was purchased from Cambridge Bioscience Limited; made in house; host or cells: CHO cells (tetracycline-induced, pcDNA5 FRT TO-TOPO)
Put plainly: recombinant hACC2 Transcreener assay (direct inhibition of ACC2 activity). As to conditions: Transcreener ADP detection FP assay, 50 μM ATP, 30 μM acetyl-CoA, 50 min at 25° C. Type of assay: biochemical. The procedure: For example direct inhibition of ACC activity, for the compound of Formula (1) was determined using preparations of recombinant human ACC1 (rhACC1) and recombinant human ACC2 (rhACC2). Representative sequences of the recombinant human ACC1 and ACC2 that can be used in the assay are provided in FIG. 1 (SEQ ID NO. 1) and FIG. 2 (SEQ. ID NO. 2), respectively.
[3] Preparation of rhACC2. Human ACC2 inhibition was measured using purified recombinant human ACC2 (hrACC2). Briefly, a full length Cytomax clone of ACC2 was purchased from Cambridge Bioscience Limited and was sequenced and subcloned into PcDNA5 FRT TO-TOPO (Invitrogen, Carlsbad, Calif.). The ACC2 was expressed in CHO cells by tetracycline induction and harvested in 5 liters of DMEM/F12 with glutamine, biotin, hygromycin and blasticidin with 1 μg/mL tetracycline (Invitrogen, Carlsbad, Calif.). The conditioned medium containing ACC2 was then applied to a Softlink Soft Release Avidin column (Promega, Madison, Wis.) and eluted with 5 mM biotin. 4 mgs of ACC2 were eluted at a concentration of 0.05 mg/mL (determined by A280) with an estimated purity of 95% ([…]). The purified ACC2 was dialyzed in 50 mM Tris, 200 mM NaCl, 4 mM DTT, 2 mM EDTA, and 5% glycerol. The pooled protein was frozen and stored at −80° C., with no loss of activity upon thawing. For measurement of ACC2 activity and assessment of ACC2 inhibition, test compounds were dissolved in DMSO and added to the rhACC2 enzyme as a 5× stock with a final DMSO concentration of 1%.
[4] Measurement of human ACC2 inhibition. hACC2 was assayed in a Costar #3676 (Costar, Cambridge, Mass.) 384-well plate using the Transcreener ADP detection FP assay kit (Bellbrook Labs, Madison, Wisconsin) using the manufacturer's recommended conditions for a 50 uM ATP reaction. The final conditions for the assay were 50 mM HEPES, pH 7.2, 5 mM MgCl2, 5 mM tripotassium citrate, 2 mM DTT, 0.1 mg/mL BSA, 30 μM acetyl-CoA, 50 μM ATP, and 8 mM KHCO3 Typically, a 10 μl reaction was run for 50 min at 25° C., and 10 μl of Transcreener stop and detect buffer was added and the combination incubated at room temp for an additional 1 hour. The data was acquired on an Envision Fluorescence reader (Perkinelmer) using a 620 excitation Cy5 FP general dual mirror, 620 excitation Cy5 FP filter, 688 emission (S) and a 688 (P) emission filter.

T2 sequence (O00763 whole entry V2141I): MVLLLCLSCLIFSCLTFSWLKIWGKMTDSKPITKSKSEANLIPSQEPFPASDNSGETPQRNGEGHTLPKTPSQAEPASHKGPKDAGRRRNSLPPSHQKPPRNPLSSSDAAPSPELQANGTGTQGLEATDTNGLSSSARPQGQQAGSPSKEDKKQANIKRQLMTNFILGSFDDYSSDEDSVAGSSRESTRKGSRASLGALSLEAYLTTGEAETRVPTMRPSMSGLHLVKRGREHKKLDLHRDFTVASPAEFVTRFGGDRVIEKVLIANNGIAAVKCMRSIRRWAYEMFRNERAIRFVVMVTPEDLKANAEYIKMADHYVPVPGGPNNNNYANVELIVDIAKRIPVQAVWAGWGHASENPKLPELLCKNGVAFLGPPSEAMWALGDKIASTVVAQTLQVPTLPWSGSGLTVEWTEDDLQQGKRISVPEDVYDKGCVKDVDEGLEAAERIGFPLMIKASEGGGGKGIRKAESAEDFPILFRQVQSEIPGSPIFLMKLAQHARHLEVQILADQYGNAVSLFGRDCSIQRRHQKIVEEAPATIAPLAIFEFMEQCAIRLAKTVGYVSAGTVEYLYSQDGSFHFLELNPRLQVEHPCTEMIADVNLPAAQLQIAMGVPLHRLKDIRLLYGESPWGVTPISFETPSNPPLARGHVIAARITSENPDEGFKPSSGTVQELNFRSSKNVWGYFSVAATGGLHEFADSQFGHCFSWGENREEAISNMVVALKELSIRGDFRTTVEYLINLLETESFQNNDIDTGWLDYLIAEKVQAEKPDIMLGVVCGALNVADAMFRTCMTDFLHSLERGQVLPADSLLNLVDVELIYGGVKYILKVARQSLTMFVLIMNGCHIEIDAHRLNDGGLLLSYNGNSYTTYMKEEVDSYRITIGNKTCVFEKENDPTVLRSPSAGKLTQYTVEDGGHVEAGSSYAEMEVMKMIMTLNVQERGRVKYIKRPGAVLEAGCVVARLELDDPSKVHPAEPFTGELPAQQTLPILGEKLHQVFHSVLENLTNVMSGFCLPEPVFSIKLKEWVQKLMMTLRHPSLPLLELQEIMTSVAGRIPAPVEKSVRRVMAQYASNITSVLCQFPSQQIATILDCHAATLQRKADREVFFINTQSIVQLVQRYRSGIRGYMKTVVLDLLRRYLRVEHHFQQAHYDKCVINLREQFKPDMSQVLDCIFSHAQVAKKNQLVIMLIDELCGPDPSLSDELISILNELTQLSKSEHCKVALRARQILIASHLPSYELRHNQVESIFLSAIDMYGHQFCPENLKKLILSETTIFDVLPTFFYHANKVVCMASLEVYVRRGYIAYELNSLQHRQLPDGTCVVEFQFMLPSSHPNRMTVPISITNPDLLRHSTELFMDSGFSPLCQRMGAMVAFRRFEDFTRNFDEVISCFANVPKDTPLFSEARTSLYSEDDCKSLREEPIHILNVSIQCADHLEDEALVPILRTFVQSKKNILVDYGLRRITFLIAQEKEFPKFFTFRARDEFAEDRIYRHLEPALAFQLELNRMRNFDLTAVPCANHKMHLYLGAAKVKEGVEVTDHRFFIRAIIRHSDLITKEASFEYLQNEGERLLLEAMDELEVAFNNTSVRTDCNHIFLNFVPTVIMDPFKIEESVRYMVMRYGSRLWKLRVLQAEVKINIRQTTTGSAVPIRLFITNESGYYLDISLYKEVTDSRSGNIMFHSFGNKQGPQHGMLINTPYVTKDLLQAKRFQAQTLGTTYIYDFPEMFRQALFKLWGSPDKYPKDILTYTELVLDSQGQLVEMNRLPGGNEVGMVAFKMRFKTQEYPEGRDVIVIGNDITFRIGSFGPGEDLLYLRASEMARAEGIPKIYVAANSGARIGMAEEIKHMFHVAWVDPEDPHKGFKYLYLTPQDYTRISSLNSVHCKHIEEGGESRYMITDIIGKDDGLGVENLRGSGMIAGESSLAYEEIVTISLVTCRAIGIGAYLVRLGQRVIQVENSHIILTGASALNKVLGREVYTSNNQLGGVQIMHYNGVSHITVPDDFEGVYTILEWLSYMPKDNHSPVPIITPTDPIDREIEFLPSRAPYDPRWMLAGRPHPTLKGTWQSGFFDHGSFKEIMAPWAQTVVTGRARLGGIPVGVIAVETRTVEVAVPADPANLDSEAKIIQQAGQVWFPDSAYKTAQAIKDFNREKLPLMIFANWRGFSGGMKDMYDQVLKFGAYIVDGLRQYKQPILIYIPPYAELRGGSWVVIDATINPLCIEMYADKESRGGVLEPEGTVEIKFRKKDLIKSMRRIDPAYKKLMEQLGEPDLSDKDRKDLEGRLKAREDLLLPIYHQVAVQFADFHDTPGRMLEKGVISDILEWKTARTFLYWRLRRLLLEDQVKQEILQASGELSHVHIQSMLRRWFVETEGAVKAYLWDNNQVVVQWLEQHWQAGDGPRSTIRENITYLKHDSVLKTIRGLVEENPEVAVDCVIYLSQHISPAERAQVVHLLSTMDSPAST

`CC(C)n1ncc2c1C(=O)C(C)C1(CCN(C(=O)c3ccc4[nH]ncc4c3)CC1)C2` (racemic) [Example 4A-1, 1′-(1H-indazole-5-carbonyl)-1-isopropyl-6-methyl-4,6-dihydrospiro[indazole-5,4′-piperidin]-7(1H)-one]: the IC50 in assay [1] amounted to 399 nM; in assay [2], 125 nM.
On to `CC(C)n1ncc2c1C(=O)C(C)C1(CCN(C(=O)c3ccc4[nH]ncc4c3)CC1)C2` (single isomer, unassigned; (+)) [Example 5A-1, (+)-1′-(1H-indazole-5-carbonyl)-1-isopropyl-6-methyl-4,6-dihydrospiro[indazole-5,4′-piperidin]-7(1H)-one], for which the figures for the IC50 in assay [1] and in assay [2] were 4480 nM and 866 nM, respectively.
In the case of `CC(C)n1ncc2c1C(=O)C(C)C1(CCN(C(=O)c3ccc4[nH]ncc4c3)CC1)C2` (single isomer, unassigned; (-)) [Example 5A-2, (−)-1′-(1H-indazole-5-carbonyl)-1-isopropyl-6-methyl-4,6-dihydrospiro[indazole-5,4′-piperidin]-7(1H)-one], the results for the IC50 in assay [1] and in assay [2] were 175 nM and 80.7 nM, respectively.
`Cc1cc(C(=O)N2CCC3(CC2)CC(=O)c2c(cnn2C(C)C)C3)ccc1Cl` [Example 1A-1, 1-isopropyl-1′-(4-chloro-3-methylbenzoyl)-4,6-dihydrospiro[indazole-5,4′-piperidin]-7(1H)-one]: the IC50 was 267 nM in assay [1] and 68 nM in assay [2].
In the same order, the values of `Cc1cc(C(=O)N2CCC3(CC2)CC(=O)c2c(cnn2C(C)(C)C)C3)ccc1Cl` [Example 1A-2] are 444 nM and 62.3 nM.
The corresponding values for `Cc1cc(C(=O)N2CCC3(CC2)CC(=O)c2c(cnn2C2CCC2)C3)ccc1Cl` [Example 1A-3] are 646 nM and 155 nM.
In the same order, the values of `Cc1cc(C(=O)N2CCC3(CC2)CC(=O)c2c(cnn2Cc2ccccc2)C3)ccc1Cl` [Example 1A-4] are 2980 nM and 719 nM.
Consider `Cc1cc(C(=O)N2CCC3(CC2)CC(=O)c2c(cnn2C2CCOC2)C3)ccc1Cl` (stereo not drawn) [Example 1A-5], for which the IC50 was determined as 800 nM in assay [1] and 127 nM in assay [2].
Consider `CC(C)n1ncc2c1C(=O)CC1(CCN(C(=O)c3cnc4[nH]ncc4c3)CC1)C2` [Example 2A-1, 1-Isopropyl-1′-(1H-pyrazolo[3,4-b]pyridine-5-carbonyl)-4,6-dihydrospiro[indazole-5,4′-piperidin]-7(1H)-one], for which the IC50 in assay [1] is 282 nM; in assay [2] it was 69.7 nM.
In the same order, the values of `Cc1cc(C(=O)N2CCC3(CC2)CC(=O)c2c(cnn2CC2CCCO2)C3)ccc1Cl` (stereo not drawn) [Example 2A-2] are 8300 nM and 3570 nM.
The corresponding values for `COCC(C)n1ncc2c1C(=O)CC1(CCN(C(=O)c3ccc(Cl)c(C)c3)CC1)C2` (stereo not drawn) [Example 2A-3] are 2720 nM and 680 nM.
In the same order, the values of `Cc1cc(C(=O)N2CCC3(CC2)CC(=O)c2c(cnn2C)C3)ccc1Cl` [Example 2A-4] are 8730 nM and 2530 nM.
As for `Cc1cc(C(=O)N2CCC3(CC2)CC(=O)c2c(cnn2CC(C)C)C3)ccc1Cl` [Example 2A-5], the half-maximal inhibitory concentration (IC50) was determined as 1220 nM in assay [1] and 481 nM in assay [2].
The corresponding values for `Cc1cc(C(=O)N2CCC3(CC2)CC(=O)c2c(cnn2C(C)c2ccccc2)C3)ccc1Cl` (stereo not drawn) [Example 2A-6] are 640 nM and 88.8 nM.
As to `CCn1ncc2c1C(=O)CC1(CCN(C(=O)c3ccc(Cl)c(C)c3)CC1)C2` [Example 2A-7], the IC50 in assay [1] came to 4340 nM; in assay [2] it was 965 nM.
The corresponding values for `COCCn1ncc2c1C(=O)CC1(CCN(C(=O)c3ccc(Cl)c(C)c3)CC1)C2` [Example 2A-8] are 16000 nM and 4890 nM.
Turning to `CCCn1ncc2c1C(=O)CC1(CCN(C(=O)c3ccc(Cl)c(C)c3)CC1)C2` [Example 2A-9], the half-inhibitory concentration (IC50) in assay [1] came to 4260 nM; in assay [2], 1850 nM.
The corresponding values for `CC(C)n1ncc2c1C(=O)CC1(CCN(C(=O)c3ccc4cnn(C)c4c3)CC1)C2` [Example 2A-10] are 188 nM and 29.2 nM.
